How the values were obtained:
anxiety-like behavior = test: Elevated plus maze (EPM); format: in vivo, male Wistar rats; conditions: for Closed arm entries / Closed arm returns / Head dips in open arms / Stretch-attend postures / Time in closed arms / Time in open arms / Total arm entries: mean; for % Time in open arms / Open Arm Entries / Total distance travelled: mean ± S.E.M.
recognition memory = test: Novel object recognition, scopolamine-impairment model, 3 hr retention interval
[1] = 30 mg/kg PO 20 min prior to EPM
[2] = 60 mg/kg PO 20 min prior to EPM
[3] = 120 mg/kg PO 40 min prior to EPM

CCOc1ccccc1OC[C@@H]1CN(C(=O)OC(C)OC(=O)[C@@H](N)C(C)C)CCO1 (stereo partly drawn) [COMPOUND A]
Closed arm entries (anxiety-like behavior; [1]): 10.00
Closed arm returns (anxiety-like behavior; [1]): 2.00
Head dips in open arms (anxiety-like behavior; [1]): 2.25
Stretch-attend postures (anxiety-like behavior; [1]): 18.00
Time in closed arms (anxiety-like behavior; [1]): 282.58 s
Time in open arms (anxiety-like behavior; [1]): 8.74 s
Total arm entries (anxiety-like behavior; [1]): 11.00
% Time in open arms (anxiety-like behavior; [1]): 2.91 ± 1.28%
Open Arm Entries (anxiety-like behavior; [1]): 1.00 ± 0.33
Total distance travelled (anxiety-like behavior; [1]): 1591.15 ± 73.52 cm
Closed arm entries (anxiety-like behavior; [2]): 7.00
Closed arm returns (anxiety-like behavior; [2]): 2.13
Head dips in open arms (anxiety-like behavior; [2]): 3.63
Stretch-attend postures (anxiety-like behavior; [2]): 18.63
Time in closed arms (anxiety-like behavior; [2]): 281.10 s
Time in open arms (anxiety-like behavior; [2]): 7.25 s
Total arm entries (anxiety-like behavior; [2]): 7.63
% Time in open arms (anxiety-like behavior; [2]): 2.42 ± 0.92%
Open Arm Entries (anxiety-like behavior; [2]): 0.63 ± 0.18
Total distance travelled (anxiety-like behavior; [2]): 1318.06 ± 39.58 cm
Closed arm entries (anxiety-like behavior; [3]): 9.63
Closed arm returns (anxiety-like behavior; [3]): 2.00
Head dips in open arms (anxiety-like behavior; [3]): 2.25
Stretch-attend postures (anxiety-like behavior; [3]): 20.38
Time in closed arms (anxiety-like behavior; [3]): 283.06 s
Time in open arms (anxiety-like behavior; [3]): 0.85 s
Total arm entries (anxiety-like behavior; [3]): 9.88
% Time in open arms (anxiety-like behavior; [3]): 0.28 ± 0.19%
Open Arm Entries (anxiety-like behavior; [3]): 0.25 ± 0.16
Total distance travelled (anxiety-like behavior; [3]): 1476.54 ± 60.73 cm
total distance traveled vs vehicle (anxiety-like behavior; COMPOUND A 60 and 120 mg/kg p.o.): travelled a significantly shorter distance
d2 ratios: effect on scopolamine impairment (recognition memory; COMPOUND A 90 mg/kg p.o. + scopolamine): significantly attenuated this effect of scopolamine
preference for the novel object (exploration times) (recognition memory; COMPOUND A 30, 60, and 90 mg/kg p.o. + scopolamine, 3 hr delay): significant (p<0.05) preference for the novel object

— patent publication US20240343699A1, “DERIVATIVES OF SUBSTITUTED MORPHOLINES AND USES THEREOF” (Supernus Pharmaceuticals, Inc., priority 2023, published 2024)
